Reference: publication PMC11968394, “The effect of deuterated PLK1 inhibitor on its safety and efficacy in vivo” (Frontiers in Oncology, 2025)
Where “and” joins values, the source holds several entries; their conditions need not be identical. Equal values may be shown once. Read-outs that look alike come from different tables or passages of the source.

Legend:
BxPC-3 = test: Cell viability (CellTiter-Glo, 72 h), BxPC-3; assay type: cell-based, Human; conditions: BxPC-3, 72 hours; for Bottom: dose-response curve bottom; for Top: dose-response curve top; for IC50: Homo sapiens
Procedure: (§1) Human pancreatic cancer cell lines (PSN1, PANC-1, Panc 04.03, MIA PaCa-2, BxPC-3, and Capan-1) were cultured in their respective culture media. PSN1 cell lines were maintained in RPMI 1640 + 10%FBS. MIA PaCa-2 cells were cultured in DMEM+10%FBS+5% horse serum. Panc 04.03 cells were grown in RPMI 1640 + 15%FBS+10μg/mL Insulin. PANC-1 cells were maintained in DMEM+10%FBS. BxPC-3 cells were cultured in RPMI 1640 + 10%FBS. Capan-1 cells were grown in IMDM+20%FBS. All cells were incubated at 37°C in a humidified atmosphere containing 5% CO2.
(§2) For assays, cells in the logarithmic growth phase were harvested, seeded to different concentrations at 2,000-6,000 cells/well in 96-well plates. Following overnight incubation, test compounds were added at various concentrations and incubated for 72 hours. Cell viability was assessed by the ATP concentration using the CellTiter-Glo reagent (Promega, Madison, WI 53711 USA), and luminescence values were recorded by a Multilabel Reader (PerkinElmer, Waltham, MA, USA).

Capan-1 = test: Cell viability (CellTiter-Glo, 72 h), Capan-1; assay type: cell-based, Human; conditions: Capan-1, 72 hours; for Bottom: dose-response curve bottom; for Top: dose-response curve top; for IC50: Homo sapiens
Procedure: as §1, §2

RON = RON (Homo sapiens, UniProt Q04912); test: Kinase assay RON; assay type: biochemical
Chain of RON (Q04912 25-1400, species assumed): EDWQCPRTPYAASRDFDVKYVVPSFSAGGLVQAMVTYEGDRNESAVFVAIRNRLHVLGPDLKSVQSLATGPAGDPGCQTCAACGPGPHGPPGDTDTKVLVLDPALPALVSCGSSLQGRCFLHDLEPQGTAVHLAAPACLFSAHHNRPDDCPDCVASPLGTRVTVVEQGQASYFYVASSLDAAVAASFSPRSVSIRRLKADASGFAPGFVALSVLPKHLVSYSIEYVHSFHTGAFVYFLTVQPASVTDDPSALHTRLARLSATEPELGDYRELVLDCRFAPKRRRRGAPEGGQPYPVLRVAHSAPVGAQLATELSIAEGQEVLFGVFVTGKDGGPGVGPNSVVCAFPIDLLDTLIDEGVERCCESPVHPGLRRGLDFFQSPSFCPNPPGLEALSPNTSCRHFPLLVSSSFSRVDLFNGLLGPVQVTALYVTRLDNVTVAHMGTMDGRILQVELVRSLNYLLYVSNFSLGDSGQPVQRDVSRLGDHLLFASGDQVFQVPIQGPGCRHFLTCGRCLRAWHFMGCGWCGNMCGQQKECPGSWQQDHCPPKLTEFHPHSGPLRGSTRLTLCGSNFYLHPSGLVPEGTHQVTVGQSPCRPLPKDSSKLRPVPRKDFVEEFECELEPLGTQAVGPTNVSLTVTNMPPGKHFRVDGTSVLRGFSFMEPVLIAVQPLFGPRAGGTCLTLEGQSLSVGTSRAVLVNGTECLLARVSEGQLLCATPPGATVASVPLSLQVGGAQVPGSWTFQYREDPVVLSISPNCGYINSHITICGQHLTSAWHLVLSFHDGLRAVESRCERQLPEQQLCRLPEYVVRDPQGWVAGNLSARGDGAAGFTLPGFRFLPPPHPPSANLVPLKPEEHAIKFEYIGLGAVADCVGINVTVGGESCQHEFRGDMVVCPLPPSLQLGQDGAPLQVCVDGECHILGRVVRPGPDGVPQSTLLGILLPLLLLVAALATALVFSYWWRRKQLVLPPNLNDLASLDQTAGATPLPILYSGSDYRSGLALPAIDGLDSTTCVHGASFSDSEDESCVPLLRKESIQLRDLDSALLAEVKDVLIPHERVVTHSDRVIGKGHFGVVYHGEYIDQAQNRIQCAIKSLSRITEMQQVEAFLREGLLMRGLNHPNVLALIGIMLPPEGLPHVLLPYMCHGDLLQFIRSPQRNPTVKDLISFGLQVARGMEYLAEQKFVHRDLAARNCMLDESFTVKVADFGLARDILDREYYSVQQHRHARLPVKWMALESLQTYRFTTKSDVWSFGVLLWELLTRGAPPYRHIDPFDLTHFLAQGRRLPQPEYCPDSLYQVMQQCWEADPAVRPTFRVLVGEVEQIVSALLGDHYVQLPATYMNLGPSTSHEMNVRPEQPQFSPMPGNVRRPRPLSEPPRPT
Procedure: (§3) Serial dilutions in DMSO were prepared. PLK1 was serially diluted 5-fold from 10 μM, yielding concentrations from 10000 nM to 0.00512 nM. Other targets were serially diluted 3-fold from 10 μM, yielding concentrations from 10000 nM to 0.5 nM. We have used two kinase assays: HTRF assay and ADG-Glo assay.
(§4) For HTRF Assay, 2× ATP/substrate solution and 2× kinase solution were prepared in kinase reaction buffer. Using an Echo 655, 50 nL of each diluted compound was transferred to a 384-well detection plate. The plate was centrifuged at 1000 rpm for 1 minute. 2.5 μL of 2× kinase solution was added to each well. The plate was incubated at 25°C for 10 minutes. 2.5 μL of 2× ATP/substrate solution was added to each well. The plate was centrifuged at 1000 rpm for 1 minute. The plate was incubated at 25°C for 40 minutes. 2× XL665 and antibody detection reagent were prepared in detection buffer. 5 μL of the prepared kinase detection reagent was added to each well. The plate was centrifuged at 1000 rpm for 1 minute. The plate was incubated at 25°C for 1 hour. Fluorescence signals at 620 nm (Cryptate) and 665 nm (XL665) were measured using a multifunction plate reader.
(§5) For ADP-Glo Assay, 2× ATP/substrate solution and 2× kinase solution were prepared in kinase reaction buffer. […] Luminescence signals were measured using a multifunction plate reader.

CK1ϵ = CK1ϵ (Homo sapiens, UniProt P49674); test: Kinase assay CK1ϵ; assay type: biochemical
Chain of CK1ϵ (P49674 whole entry): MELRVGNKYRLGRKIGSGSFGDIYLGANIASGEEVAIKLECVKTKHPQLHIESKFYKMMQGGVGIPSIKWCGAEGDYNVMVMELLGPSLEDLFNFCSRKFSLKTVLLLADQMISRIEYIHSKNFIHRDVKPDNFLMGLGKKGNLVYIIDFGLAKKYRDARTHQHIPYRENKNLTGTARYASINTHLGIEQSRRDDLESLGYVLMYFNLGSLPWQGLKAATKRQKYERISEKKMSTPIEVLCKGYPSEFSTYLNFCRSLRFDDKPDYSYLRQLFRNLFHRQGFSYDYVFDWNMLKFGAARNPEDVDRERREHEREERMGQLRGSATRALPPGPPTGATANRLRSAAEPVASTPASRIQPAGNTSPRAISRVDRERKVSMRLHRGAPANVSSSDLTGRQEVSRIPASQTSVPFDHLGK
Procedure: as §3, §4, §5

CK1α = CK1α (Homo sapiens, UniProt P48729); test: Kinase assay CK1α; assay type: biochemical
Chain of CK1α (P48729 whole entry): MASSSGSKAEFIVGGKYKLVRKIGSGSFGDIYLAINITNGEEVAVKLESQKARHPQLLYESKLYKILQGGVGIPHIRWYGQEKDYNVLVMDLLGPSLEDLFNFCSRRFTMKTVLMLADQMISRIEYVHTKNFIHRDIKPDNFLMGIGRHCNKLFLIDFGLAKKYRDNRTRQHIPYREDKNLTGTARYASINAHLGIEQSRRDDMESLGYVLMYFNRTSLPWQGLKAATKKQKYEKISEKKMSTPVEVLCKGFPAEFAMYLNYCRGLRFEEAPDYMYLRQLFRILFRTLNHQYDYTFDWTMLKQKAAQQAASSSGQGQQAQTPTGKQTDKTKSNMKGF
Procedure: as §3, §4, §5

CLK4 = CLK4 (Homo sapiens, UniProt Q9HAZ1); test: Kinase assay CLK4; assay type: biochemical
Chain of CLK4 (Q9HAZ1 whole entry, species assumed): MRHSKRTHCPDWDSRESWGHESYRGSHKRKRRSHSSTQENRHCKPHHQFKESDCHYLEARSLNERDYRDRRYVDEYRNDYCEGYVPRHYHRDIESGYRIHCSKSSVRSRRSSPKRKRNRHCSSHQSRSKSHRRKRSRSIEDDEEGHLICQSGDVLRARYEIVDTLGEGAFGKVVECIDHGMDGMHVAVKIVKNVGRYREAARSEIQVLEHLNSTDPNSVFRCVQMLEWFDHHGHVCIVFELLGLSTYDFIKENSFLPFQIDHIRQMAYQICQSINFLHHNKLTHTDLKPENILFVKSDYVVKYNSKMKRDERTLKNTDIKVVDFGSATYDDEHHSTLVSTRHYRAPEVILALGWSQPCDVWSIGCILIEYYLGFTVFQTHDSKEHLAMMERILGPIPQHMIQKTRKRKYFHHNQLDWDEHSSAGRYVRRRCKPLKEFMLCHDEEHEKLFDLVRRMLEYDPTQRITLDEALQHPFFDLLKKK
Procedure: as §3, §4, §5

[1] = Caco-2 permeability assay; assay type: in vitro ADME; conditions: for Permeability classification: Caco-2, by comparing Propranolol, Digoxin, Prazosin; for recovery at 2 h, 5 μM / Papp A→B at 2 h, 5 μM / Papp B→A at 2 h, 5 μM: human; for Papp A→B at 2 h, 5 μM / Papp B→A at 2 h, 5 μM: Caco-2, 5 μM
Procedure: Caco-2 cells were cultured in 10% FBS DMEM for 14-21 days before assays. […] HBSS was added to the opposite chamber. After 2 hours incubation at 37°C, samples were analyzed by LC-MS/MS. Fluorescein leakage was tested by adding 100 μM fluorescein to the upper chamber and measuring fluorescence after 30 minutes.

BxPC-3 CDX model = test: BxPC-3 CDX model; assay type: in vivo, NOD SCID mouse; conditions: for Mice died: NOD SCID, 60 mg/kg, 6 mice/group, 10 days
Procedure: These studies were performed at Yikon Medical (Beijing, China). Cancer cell line HCT 116 or BxPC-3 were cultured in 10% FBS RPMI-1640 medium plus penicillin, streptomycin, and glutamine at 37°C and 5% CO2 until reaching confluency. Cells were then prepared for inoculation. 5×10⁷ cells/mL cells in 100 µL were inoculated subcutaneously into the right flank of each female BALB/c nude mouse for HCT 116 cell line or female NOD SCID mouse for BxPC-3 cell line. When tumors reached 100-150 mm³, mice were divided into 4-5 groups (6-7 mice/group). […] Mice were dosed at least 10 days and were monitored for 30 days.
(§6) TGI was calculated as follows.

PSN-1 CDX model = test: PSN-1 CDX model, tumor growth inhibition after 4-day dosing; assay type: in vivo, M-NSG mice; conditions: for TGI / Tumor volume Day 4: 4-day dosing; for Tumor volume Day 0: baseline
Procedure: For in vivo PK/PD studies, a PSN1 tumor model was established in female M-NSG (NOD.Cg-Prkdc^scidIl2rg^em1Smoc ) mice, which are severely immunodeficient mice lacking the interleukin 2 receptor gamma chain on a NOD.Cg-Prkdc^scid background, at Shanghai Model Organisms (Shanghai, China). Briefly, 5 × 10^6 PSN1 cells were inoculated subcutaneously into each M-NSG mouse. Once the tumors reached approximately 500 mm³, compounds were administered orally at various dosages. For PK studies, blood samples were collected at 0, 0.25, 0.5, 1, 2, 6, and 24 hours post-dose. The sera from blood were then obtained and stored at -70°C. For PD studies, tumors were harvested 2 hours after dosing and stored at -70°C.The serum and tumor samples were then transported to PRECEDO (Hefei, Anhui, China) for further PK/PD studies.
as §6

[2] = Caco-2, Caco-2, A-B, read-out: Recovery A-B%
[3] = Caco-2, Caco-2, B-A, read-out: Recovery B-A%

For `CN1CCN(c2ccc(OC(F)(F)F)c(Nc3ncc4c(n3)-c3c(c(C(N)=O)nn3CCO)CC4)c2)CC1` [NMS-P937], the Bottom (BxPC-3) was -2.8, the Top (BxPC-3) was 53.5 and the IC50 (BxPC-3) was 64.9 nM. The Bottom (Capan-1) was 2.5, the Top (Capan-1) was 56.5 and the IC50 (Capan-1) was 127 nM. It also gave an IC50 (RON) of 1090 nM, an IC50 (CK1ϵ) of 156 nM and an IC50 (CK1α) of 184 nM. The IC50 (CLK4) was 278 nM, the Permeability classification [1] was “medium permeability” and the recovery at 2 h, 5 μM [1, 2] was 71.6%. It also gave a recovery at 2 h, 5 μM [1, 3] of 93.3%, a Papp A→B at 2 h, 5 μM [1] of 6.1 ×10⁻⁶ cm/s and a Papp B→A at 2 h, 5 μM [1] of 34.2 ×10⁻⁶ cm/s. The Body weight (BxPC-3 CDX model; NOD SCID mice) was “dramatically reduced body weight”, the Mice died (BxPC-3 CDX model) was “two mice died” and the Mice died (BxPC-3 CDX model; listed as NMP-P937, 60 mg/kg) was 2/6. The TGI (PSN-1 CDX model; 15 mg/kg) was 51.3%, the “Tumor volume Day 4” value (PSN-1 CDX model; 15 mg/kg) was 166.43 ± 5.79 mm^3 and the “Tumor volume Day 0” value (PSN-1 CDX model; 15 mg/kg) was 119.66 ± 1.67 mm^3. For the same compound, the TGI (PSN-1 CDX model; 30 mg/kg) was 68.1%, the “Tumor volume Day 4” value (PSN-1 CDX model; 30 mg/kg) was 149.94 ± 4.21 mm^3 and the “Tumor volume Day 0” value (PSN-1 CDX model; 30 mg/kg) was 119.38 ± 2.09 mm^3. The TGI (PSN-1 CDX model; 60 mg/kg) was 81.2%, the “Tumor volume Day 4” value (PSN-1 CDX model; 60 mg/kg) was 137.49 ± 5.16 mm^3 and the “Tumor volume Day 0” value (PSN-1 CDX model; 60 mg/kg) was 119.42 ± 2.14 mm^3.
Work on `[2H]C1([2H])N(C)C([2H])([2H])C([2H])([2H])N(c2ccc(OC(F)(F)F)c(Nc3ncc4c(n3)-c3c(c(C(N)=O)nn3CCO)CC4)c2)C1([2H])[2H]` [PR00012] yielded a Bottom (BxPC-3) of 13.6, a Top (BxPC-3) of 66.3 and an IC50 (BxPC-3) of 65.1 nM. For the same compound, the Bottom (Capan-1) was 15.6, the Top (Capan-1) was 68.5 and the IC50 (Capan-1) was 115 nM. It also gave an IC50 (RON) of 905 nM, an IC50 (CK1ϵ) of 156 nM and an IC50 (CK1α) of 182 nM. For the same compound, the IC50 (CLK4) was 231 nM, the Permeability classification [1] was “medium permeability” and the recovery at 2 h, 5 μM [1, 2] was 79.7%. It also gave a recovery at 2 h, 5 μM [1, 3] of 89.7%, a Papp A→B at 2 h, 5 μM [1] of 5.2 ×10⁻⁶ cm/s and a Papp B→A at 2 h, 5 μM [1] of 34.7 ×10⁻⁶ cm/s. For the same compound, the Tumor growth (BxPC-3 CDX model; NOD SCID mice) was “tumor growth inhibition in a dose-dependent manner”, the Mice died (BxPC-3 CDX model) was “one mouse died and 1/6” and the TGI (PSN-1 CDX model; 15 mg/kg) was 55.5%. The “Tumor volume Day 4” value (PSN-1 CDX model; 15 mg/kg) was 162.12 ± 4.11 mm^3, the “Tumor volume Day 0” value (PSN-1 CDX model; 15 mg/kg) was 119.44 ± 1.78 mm^3 and the TGI (PSN-1 CDX model; 30 mg/kg) was 75.0%. For the same compound, the “Tumor volume Day 4” value (PSN-1 CDX model; 30 mg/kg) was 143.49 ± 5.64 mm^3, the “Tumor volume Day 0” value (PSN-1 CDX model; 30 mg/kg) was 119.48 ± 1.95 mm^3 and the TGI (PSN-1 CDX model; 60 mg/kg) was 91.2%. The “Tumor volume Day 4” value (PSN-1 CDX model; 60 mg/kg) was 127.93 ± 1.60 mm^3 and the “Tumor volume Day 0” value (PSN-1 CDX model; 60 mg/kg) was 119.48 ± 1.72 mm^3.
